Measurements published in publication PMC12135066, “Design and Preclinical Evaluation of Novel uPAR-Targeting Radiopeptides Modified with an Albumin-Binding Entity” (Molecular Pharmaceutics, 2025).

Assays:
[1] = Biodistribution studies in HEK-uPAR xenograft-bearing nude mice; settings: female, CD1/nude, mouse, 5 MBq (0.5 nmol), total radioactivity, 5 MBq, 0.5 nmol, decay-corrected, average ± SD, n=3 animals; for tissue uptake at 4 h: 4 h p.i.; for tissue uptake at 24 h: 24 h p.i.
Method: (§1) All applicable international, national, and/or institutional guidelines for the care and use of laboratory animals were followed, and the herein reported experiments were carried out according to the guidelines of the Swiss Regulations for Animal Welfare. The preclinical studies were ethically approved by the Cantonal Committee of Animal Experimentation and permitted by the responsible cantonal authorities (License No. 75721). Five-week-old female CD1/nude (Crl:CD1-Foxn ^ nu ) and female immunocompetent FVB (FVB/NCrl) mice were obtained from Charles River Laboratories (Sulzfeld, Germany). All mice were acclimatized for at least 7 days, receiving standard rodent chow ad libitum before being included in the reported studies. The CD1/nude mice were subcutaneously inoculated with HEK-uPAR cells (7 × 10^6 cells in 100 μL PBS) on the right shoulder. […] Typically, it took 3–11 weeks to reach xenograft volumes of 40–600 mm^3 at the time of testing the tissue distribution of the radiopeptides. The immunocompetent FVB mice were used for testing the in vivo stability of the radiopeptides.
(§2) The mice were injected with the radiopeptides (5 MBq, 0.5 nmol, 100 μL) in saline containing 0.05% BSA and sacrificed at 4 and 24 h after injection of the radiopeptides. Selected tissues and organs were collected, weighed, and measured with the γ-counter (1480 Wizard, PerkinElmer). […] A p-value of <0.05 was considered a statistically significant difference (GraphPad Prism software, version 8.3.1).
(§3) Decay-corrected data is shown as average ± SD of n = 3 animals of % injected activity per gram (IA/g) tissue.

[2] = tested on: HEK-uPAR xenograft-bearing nude mice; test: as above; settings: average ± SD, n=3 animals
Method: as §1, §2, §3

[3] = biological target: T1, human uPAR (Homo sapiens, UniProt Q03405); test: uPAR-binding affinity (KD values), saturation experiments with HEK-uPAR cells; settings: saturation binding on HEK-uPAR cells, on ice (4 °C) 1 h, 1–1600 nM radiopeptide, ± AE105 40 µM; γ-counter; nonlinear regression; average ± SD, n=3
T1 construct: host or cells: HEK cells (HEK-uPAR)
T1 sequence (Q03405 23-335): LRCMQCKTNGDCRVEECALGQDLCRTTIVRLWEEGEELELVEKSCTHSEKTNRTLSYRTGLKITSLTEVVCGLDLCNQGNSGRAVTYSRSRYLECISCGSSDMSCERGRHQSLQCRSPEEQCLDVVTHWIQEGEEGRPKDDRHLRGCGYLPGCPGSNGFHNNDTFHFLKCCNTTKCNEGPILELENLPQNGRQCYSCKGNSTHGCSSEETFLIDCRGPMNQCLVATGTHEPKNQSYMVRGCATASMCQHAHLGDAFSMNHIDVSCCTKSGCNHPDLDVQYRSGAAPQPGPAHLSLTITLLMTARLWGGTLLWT
Method: To determine the uPAR-binding affinity of the radiopeptides, saturation experiments were performed using HEK-uPAR cells in 48-well plates (Supporting Information). The cells were incubated on ice for 1 h in the presence or absence of excess AE105 (final concentration of 40 μM) together with the respective radiopeptide at a concentration range of 1–1600 nM. After rinsing the cells with PBS, they were lysed with an aqueous NaOH solution (1 M, 600 μL), transferred to radioimmunoassay tubes, and measured in a γ-counter (1480 Wizard, PerkinElmer). The K D values were determined by plotting the specific binding (values of samples incubated without AE105 minus the values of samples incubated with AE105) against the molar concentration of the added peptide. A nonlinear regression analysis was performed using GraphPad Prism software (version 8.3.1). The results were expressed as average ± SD of n = 3 independently performed experiments. […]
7. Determination of uPAR-Binding Affinity (KD Values)
Purpose: The uPAR-binding affinity of the radiopeptides were determined to investigate the impact of structural changes on the receptor binding.
Methods: HEK-uPAR cells were seeded in poly-D-lysine-coated 48-well plates (0.25 × 10 6 in 0.5 mL per well) using DMEM cell culture medium with supplements. The cells were incubated at 37 °C and 5% CO2 overnight to allow adhesion and growth. After removing the supernatant, the well plates with HEK-uPAR cells were placed on ice to prevent internalization of the radiopeptides. The cells were rinsed with cold PBS (0.5 mL, pH 7.4) followed by the addition of DMEM cell culture medium without supplements (450 µL/well) in the presence or absence of AE105 ( final concentration 40 µM) as a receptor-blocking agent. The radiopeptides (5 MBq/nmol) were diluted in PBS to obtain peptide concentrations ranging from 10 ‒16000 nM. From each dilution, 50 µL were added to each well to obtain final peptide concentrations of 1 nM to 1600 nM. The cells were incubated at 4 °C for 1 h before rinsing twice with PBS (0.5 mL, pH 7.4). The cells were lysed using an aqueous NaOH solution (1 M, 600 µL) and the lysates were transferred to RIA tubes for counting the activity in a γ-counter (1480 Wizard, PerkinElmer) . The KD values were determined by plotting specific binding (total binding minus unspecific binding) against the molar concentration of the added radiopeptide using GraphPad Prism (version 8.3.1). the results were then expressed as average K D values ± SD of n = 3 independent […]
Results: The results are reported in the main article.

[4] = n-Octanol/PBS distribution coefficients (logD values); settings: n-octanol/PBS pH 7.4, pH 7.4
Method: The radiopeptides diluted in phosphate-buffered saline (PBS) pH 7.4 (25 μL, ∼0.5 MBq, 0.01 nmol) were added to a mixture of PBS pH 7.4 (1475 μL) and n-octanol (1500 μL). The vials were vortexed vigorously for 1 min, followed by centrifugation (560 rcf, 6 min) for phase separation. Aliquots were taken from each phase and measured in a γ-counter (1480 Wizard, PerkinElmer). The distribution coefficients were calculated as the logarithmic value of the ratio of counts per minute (cpm) measured in the n-octanol phase relative to the cpm measured in the PBS phase.
Methods: The logD value of all radiopeptides was determined in a mixture of n-octanol and phosphate
buffered saline (PBS) pH 7.4 using phase separation followed by liquid-liquid extraction.
polystyrene radioimmunoassay (RIA) tubes were prepared for each radiopeptide with 1.5 mL n-octanol
and 1.475 mL PBS pH 7.4. The RIA tubes were rigorously vortexed and subsequently let to stand so
that the phase separation could take place. The radiopeptides (50 MBq/nmol) were diluted with PBS
pH 7.4 to obtain an activity concentration of 10 MBq/0.5 mL. A volume of 25 μL of these solutions
was added to each RIA tube (25 µL, ~0.5 MBq, 0.01 nmol) followed by vortexing for 1 min.
separation was achieved by centrifugation at 560 rcf for 6 min. The activity in the n-octanol and PBS
phase, respectively, was measured in a γ-counter (Wallac Wizard 1480, PerkinElmer).
coefficients were calculated as the logarithm of the ratio of counts per minute (cpm) measured in the n-
octanol phase relative to the cpm measured in the PBS pH 7.4 phase.
as described above three independent times for each radiopeptide.

[5] = Stability of the radiopeptides in mouse blood plasma; settings: mouse
Method: The radiopeptides (50 MBq/nmol) stabilized with L-ascorbic acid were diluted in mouse and human blood plasma and incubated at 37 °C. Aliquots were taken after 1, 4, and 24 h and analyzed using reversed-phase thin-layer chromatography (TLC) (Supporting Information).
aProduct peak expressed as percentage of the sum of integrated peak areas of the entire chromatogram relative to
the value obtained immediately after labeling (set as 100%), average ± standard deviation (SD) (n=3).
Stability of the Radiopeptides in Mouse and Human Blood Plasma
Purpose: The stability of the radiopeptides was assessed in mouse and human blood plasma as an
indication for their in vivo stability.
Methods: The radiopeptides (50 MBq/nmol) stabilized with L-ascorbic acid were diluted in mouse
blood plasma (Lot: 32321, Rockland Immunochemicals Inc., U.S.A.) or in human blood plasma
(Stiftung Blutspende SRK Aargau -Solothurn, Switzerland) at a concentration of 10 MBq/200 µL and
incubated at 37 °C over a 24 h time period. Control samples were prepared by diluting the radiopeptides
in saline at the same activity concentration. Aliquots of each dilution were taken after 1 h, 4 h, and 24 h
(2 µL, ~100 kBq) and investigated employing thin layer chromatography (TLC) methods on reversed-
phase TLC plates (MERCK Analytical Chromatography, TLC Silica gel 60 RP -18 F254s) as stationary
phase and a 3/7 (v/v) mixture of acetonitrile /citrate buffer (0.1 M, pH 5.5) as mobile phase. A dilution
of [177Lu]LuCl3/HCl 0.04 M (10 MBq/200 µL) was added on each TLC plate. The developed and dried
TLC plates were exposed to a phosphor screen (Super resolution screen PSR10450013, PerkinElmer)
for 1 min. The screen was read with a Cyclone Plus phosphor imager (PerkinElmer) and the peak
quantification was performed using OptiQuant Software (version 5.0).

[6] = tested on: mouse serum albumin (MSA); test: Albumin-binding properties in mouse blood plasma (ultrafiltration assay); settings: ultrafiltration (Amicon, 10 kDa), mouse blood plasma dilutions in PBS pH 7.4, [MSA]-to-[radiopeptide] 0.01–12500, 0.006 nmol, 37 °C 30 min, γ-counter; inverse ratio of B50, [177Lu]Lu-uPAR-01 set as 1.00; average curve of 3 experiments
Method: (§4) The relative albumin-binding affinities of the radiopeptides in mouse and human blood plasma were determined using an ultrafiltration assay with Amicon centrifugal filters (cutoff of 10 kDa; Merck Millipore), as previously reported (Supporting Information). A fixed amount of the respective radiopeptide (15 μL, ∼300 kBq, 0.006 nmol) was added to a defined volume (150 μL) of mouse and human blood plasma dilutions to obtain [mouse serum albumin (MSA)]-to-[radiopeptide] and [human serum albumin (HSA)]-to-[radiopeptide] molar concentration ratios of 0.01–12,500 and 0.01–20,000, respectively. The data were analyzed using a semilogarithmic Hill plot with the maximum binding set as 100% (GraphPad Prism software, version 8.3.1).
(§5) Determination of the Albumin-Binding Properties
(§6) Purpose: The radiopeptides were investigated with regard to their albumin-binding capabilities in vitro
(§7) as a measure to predict blood retention in vivo.
(§8) Methods: The relative albumin-binding affinity of the radiopeptides in mouse blood plasma (Rockland
(§9) Immunochemicals, Inc., U.S.A.) and human blood plasma (Stiftung Blutspende SRK Aargau-
(§10) Solothurn, Switzerland) were determined using an ultrafiltration method. The amount of mouse serum
(§11) albumin (MSA) and human serum albumin (HSA) in mouse and human blood plasma was defined as
(§12) 550 μM and 800 μM, respectively, based on measurements using a dry chemistry analyzer (DRI-CHEM
(§13) 4000i, FUJIFILM, Japan). A fixed amount of radiopeptide (50 MBq/nmol, ~300 kBq, 15 μL, 0.006
(§14) nmol) was added to a defined volume (150 μL) of mouse and human blood plasma and various dilutions
(§15) thereof in PBS pH 7.4, resulting in defined [MSA]-to-[radiopeptide] or [HSA]-to-[radiopeptide] molar
(§16) concentration ratios ranging from 0.01 ‒12500 and 0.01‒20000, respectively, followed by incubation of
(§17) the samples at 37 °C for 30 min. Ice-cold PBS (150 µL, pH 7.4) was added before loading the blood
(§18) plasma samples on Amicon centrifugal filters (cut -off of 10 kDa; Merck Millipore) followed by
(§19) centrifugation (14000 rcf, 30 min, 4 °C) to allow the separation of the plasma protein -bound from the
(§20) plasma-unbound (free) fractions of each sample. The inserts of the filter devices were inverted and centrifuged at 200 rcf for 3 min to recover the protein -bound radiopeptide. The activity in the filtrate
(§21) and filter unit was measured in a γ-counter (1480 Wizard, PerkinElmer) and the counts were combined
(§22) assuming that the fraction retained in the filter membrane was not bound to proteins. The protein -bound
(§23) fraction was expressed as percentage of the whole activity (i.e. plasma protein -bound activity, activity
(§24) measured in the filtrate and activity measured in the filter (set as 100%) ). The data were analyzed using
(§25) a semi-logarithmic plot assuming a maximum binding of 100%. The Hill equation was fitted to the data
(§26) points and the half -maximum binding ( B50) based on the average curve obtained from three independent
(§27) experiments (GraphPad Prism software, version 8.3 .1). The relative albumin-binding affinit ies of the
(§28) reference compound, whose relative binding affinity was set as 1.0. The results were presented as the
(§29) B50 value obtained from the average curve from 3 independent experiments.

[7] = tested on: human serum albumin (HSA); test: Albumin-binding properties in human blood plasma (ultrafiltration assay); settings: ultrafiltration (Amicon, 10 kDa), human blood plasma dilutions in PBS pH 7.4, [HSA]-to-[radiopeptide] 0.01–20000, 0.006 nmol, 37 °C 30 min, γ-counter; inverse ratio of B50, [177Lu]Lu-uPAR-01 set as 1.00; average curve of 3 experiments
Method: as §4, §5, §6, §7, §8, §9, §10, §11, §12, §13, §14, §15, §16, §17, §18, §19, §20, §21, §22, §23, §24, §25, §26, §27, §28, §29

[8] = Radiolytic stability of the radiopeptides in saline with L-ascorbic acid; settings: 50 MBq/nmol in saline, 150 MBq/300 µL, L-ascorbic acid (3 mg, 20 µL) and NaOAc (0.5 M, 30 µL), HPLC, product peak relative to t=0 (100%), average ± SD, n=3
Method: The radiolytic stability of the radiopeptides (50 MBq/nmol) in saline (150 MBq/300 μL) was assessed in the absence and presence of L-ascorbic acid (3 mg added in a volume of 20 μL). After an incubation period of 1, 4, and 24 h, aliquots of the solutions were analyzed using HPLC. The integrated peak area representing the intact radiopeptide was expressed as the percentage of the sum of all peaks of the chromatogram. The final amount of intact radiopeptide was expressed as the percentage of the product peak obtained at t = 0, which was set as 100% (Supporting Information).
The radiolytic stability of [177Lu]Lu-DOTA-AE105 and the new 177Lu-labeled uPAR-targeting
radiopeptides (50 MBq/nmol) was assessed in vitro in the formulated solution . The radiopeptide s were
diluted in saline to obtain an activity concentration of 150 MBq in 300 µL in the presence of L-ascorbic
acid (3 mg, 20 µL) and NaOAc (0.5 M, 30 µL) to compensate for the acidic pH. Aliquots of the dilutions
were analyzed using HPLC after incubation periods of 1 h, 4 h and 24 h . The integrated peak area
measured for the intact radioligand peak was expressed as the percentage of the sum of the integrated
peak areas of each peak present in the chromatogram. The final amount of intact radiopeptide at t = 1 h,
4 h and 24 h was expressed by correcting the obtained percentage of the product peak to this peak
obtained at t = 0, which was set as 100%.

[9] = HEK-uPAR xenograft, HEK-uPAR xgft

tissue uptake at 4 h [1, 9]: 9.2 ± 0.2 %ID/g
tissue uptake at 24 h [1, 9]: 5.8 ± 0.6 %ID/g
tissue uptake at 4 h ([1]; blood): 16 ± 1 %ID/g
tissue uptake at 24 h ([1]; blood): 4.5 ± 0.2 %ID/g
tissue uptake at 4 h ([1]; bone): 1.9 ± 0.1 %ID/g
tissue uptake at 24 h ([1]; bone): 0.81 ± 0.01 %ID/g
tissue uptake at 4 h ([1]; brain): 0.32 ± 0.02 %ID/g
tissue uptake at 24 h ([1]; brain): 0.1 ± 0.01 %ID/g
tissue uptake at 4 h ([1]; heart): 5.7 ± 0.2 %ID/g
tissue uptake at 24 h ([1]; heart): 1.9 ± 0.1 %ID/g
tissue uptake at 4 h ([1]; intestines): 2.3 ± 0.3 %ID/g
tissue uptake at 24 h ([1]; intestines): 0.94 ± 0.04 %ID/g
tissue uptake at 4 h ([1]; kidneys): 5.6 ± 0.2 %ID/g
tissue uptake at 24 h ([1]; kidneys): 4.2 ± 0.8 %ID/g
tissue uptake at 4 h ([1]; liver): 6.4 ± 0.3 %ID/g
tissue uptake at 24 h ([1]; liver): 1.8 ± 0.2 %ID/g
tissue uptake at 4 h ([1]; lung): 9.4 ± 1 %ID/g
tissue uptake at 24 h ([1]; lung): 3.3 ± 0.3 %ID/g
tissue uptake at 4 h ([1]; muscle): 1.4 ± 0.2 %ID/g
tissue uptake at 24 h ([1]; muscle): 0.57 ± 0.07 %ID/g
tissue uptake at 4 h ([1]; pancreas): 2 ± 0.3 %ID/g
tissue uptake at 24 h ([1]; pancreas): 0.77 ± 0.04 %ID/g
tissue uptake at 4 h ([1]; salivary glands): 3.6 ± 0.3 %ID/g
tissue uptake at 24 h ([1]; salivary glands): 1.5 ± 0.1 %ID/g
tissue uptake at 4 h ([1]; spleen): 2.7 ± 0.1 %ID/g
tissue uptake at 24 h ([1]; spleen): 1.7 ± 0.2 %ID/g
tissue uptake at 4 h ([1]; stomach): 2 ± 0.1 %ID/g
tissue uptake at 24 h ([1]; stomach): 0.78 ± 0.08 %ID/g
Xenograft-to-blood ratio ([2]; 4 h p.i.): 0.57 ± 0.01
Xenograft-to-kidney ratio ([2]; 4 h p.i.): 1.6 ± 0.1
Xenograft-to-liver ratio ([2]; 4 h p.i.): 1.4 ± 0.1
Xenograft-to-blood ratio ([2]; 24 h p.i.): 1.3 ± 0.1
Xenograft-to-kidney ratio ([2]; 24 h p.i.): 1.4 ± 0.3
Xenograft-to-liver ratio ([2]; 24 h p.i.): 3.3 ± 0.3
Kd [3]: 48 ± 6 nM
logD [4]: 0.78 ± 0.05
remaining at 1 h, 10 MBq/200 µL ([5]; blood plasma): 100%
remaining at 24 h, 10 MBq/200 µL ([5]; blood plasma): 99 ± 1%
remaining at 4 h, 10 MBq/200 µL ([5]; mouse blood plasma): 100%
Relative albumin-binding affinity, mouse blood plasma [6]: 1.00
Relative albumin-binding affinity, human blood plasma [7]: 1.00
radiolytic stability, % intact radiopeptide ([8]; 1 h): 100 ± 0%
radiolytic stability, % intact radiopeptide ([8]; 4 h): 100 ± 0%
radiolytic stability after 24 h, intact radiopeptide [%] ([8]; 24 h): 93 ± 4%
SMILES: CC(C)C[C@H](NC(=O)[C@H](Cc1ccc(O)cc1)NC(=O)[C@@H](CCCNC(=N)N)NC(=O)[C@@H](CO)NC(=O)[C@H](Cc1ccccc1)NC(=O)[C@H](CC1CCCCC1)NC(=O)[C@H](CC(=O)O)NC(=O)[C@H](CCCCNC(=O)CCCc1ccc(I)cc1)NC(=O)CN1CCN(CC(=O)O)CCN(CC(=O)O)CCN(CC(=O)O)CC1)C(=O)N[C@@H](Cc1c[nH]c2ccccc12)C(=O)N[C@@H](CO)C(N)=O [[^177Lu]Lu-uPAR-01, metal not drawn]
